Reference: patent publication US7371779B2, “Synergistic compositions of N-acylhomoserine lactones and 4-quinolones” (The Secretary of State for Defense Science and Technology, priority 2001, dated 2008)
Read-outs that look alike come from different tables or passages of the source.

Tests used:
human PBMC = experiment: ConA mitogen-stimulated proliferation of human PBMC ([3H]-thymidine incorporation); assay type: cell-based; settings: for IC50: Experiment II, read-out: IC50 in inhibition of ConA induced cell proliferation of PBMC
Experimental: Blood specimens were obtained with consent from healthy human volunteers. Human peripheral blood mononuclear cells (PBMC) were isolated from heparinised whole blood by buoyant density centrifugation over Histopaque 1077 (Sigma, Poole, UK) at 600 g for 20 minutes. PBMC harvested from the ‘buffy’ layers were washed twice with RPMI 1640 medium and resuspended in CTCM. […] Human PBMC were incubated for 48 h at 37° C. in 5% CO2-air, followed by pulsing with 0.25 μCi [^3H]-thymidine (see above). After a further incubation of 24 h cells were harvested onto fibreglass filters and then counted in the presence of MicroScint-O with the Packard TopCount.
Concanavalin induced cell proliferation of human peripheral blood mononuclear cells (PBMC) was tracked, as described in I above, by a measurement of counts per minute using the scintillation counter. The inhibitory effect of an HSL compound being tested on cell proliferation was indicated by a reduction in counts per minute. […] Columns B, C and D represent different sources of human PBMC samples used.
Plots of counts per minute (cpm) against the concentration of the quorum sensing molecules and the vehicle are shown in FIG. 11.

TNF-alpha = TNF-alpha production from LPS-stimulated human PBMC (sandwich ELISA); assay type: cell-based
Experimental: Bacterial lipopolysaccharide (LPS) stimulates the production of a variety of cytokines, including TNF-alpha, from human PBMC; these cytokines in turn influence the development of T cells, supporting a T helper 1 conducive milieu. Human PBMC prepared from whole blood by buoyant density centrifugation were resuspended in CTCM. […] Following incubation for 24 h at 37° C. in 5% CO2-air, the cell culture supernatants were collected and tested for TNF-alpha levels by ‘sandwich’ ELISA. Briefly, 96-well Nunc MaxiSorp (Life Technologies, Paisley, UK) plates were coated with 50 μl of a 2 μg/ml solution of mouse anti-human TNF-alpha monoclonal antibody (Pharmingen, UK) in 0.05 M carbonate/bicarbonate buffer, pH 9.6 overnight at 4° C. After washing the plates three times with PBS-Tween, which contained phosphate buffered saline (PBS) with 0.5% (vol/vol) Tween 20 (Sigma, Poole, UK), the plates were blocked with 1% (wt/vol) bovine serum albumin (BSA) (Sigma, Poole, UK) at room temperature for 2 h. Following three washes with PBS-Tween, 50 μl of cell culture supernatants were added and incubated overnight at 4° C.; standard human TNF-alpha (Pharmingen, UK) ranging from 2000 to 31.25 pg/ml were included for each plate. After four washes with PBS-Tween, 50 μl of a second antibody, biotinylated mouse anti-human TNF-alpha monoclonal antibody (Pharmingen, UK) was added at 0.5 μg/1 ml diluted in 1% BSA in PBS-Tween and incubated at room temperature for 1 h. Following four washes, the bound biotinylated antibody was detected with 50 μl of a 1:1,000 dilution of Streptavidin-peroxidase (Pharmingen, UK). At the end of an hour incubation at room temperature, the plates were thoroughly washed six times with PBS-Tween and the assay was developed by the addition of 100 μl of 0.1 mg/ml of tetramethyl benzidine subtrate (Sigma, Poole, UK) in 0.1 M sodium acetate buffer, pH 6 containing 0.03% H2O2. The enzyme reaction was stopped with 50 μl of 2.5 M H2SO4 after an incubation of 10 minutes at room temperature and the development was read at 450 nm with a spectrophotometric 96-well plate reader (Dynex).

murine splenocytes = experiment: ConA mitogen-stimulated proliferation of murine splenocytes ([3H]-thymidine incorporation); assay type: cell-based, mouse (BALB/c); settings: ConA 1 μg/ml, 100,000 spleen cells, Experiment I; read-out: IC50 in inhibition of ConA induced murine splenocyte proliferation
Experimental: (§1) Proliferation was assessed by the incorporation of [^3H]-thymidine into DNA. Eight-week-old female BALB/c mice were obtained from Harlan (Bicester, Oxon, UK) and given food and water ad libitum. Splenocyte suspensions were prepared by removing the spleens and placing them into RPMI 1640 medium. The spleens were forced through 70-μm-pore-size wire gauzes using the plunger from a 5-ml syringe to produce a single cell suspension. The cells were pelleted by centrifugation, and erythrocytes were lysed with 0.017 M Tris, 0.144 M ammonium chloride buffer, pH 7.2. Leucocytes were washed twice with RPMI 1640 medium with 2% (vol/vol) foetal calf serum (FCS) and resuspended in complete cell culture medium (CTCM) consisting of RPMI 1640 medium with 5% FCS, 2 mM L-glutamine, and 5×10^−5 M 2-mercaptoethanol. HSL compounds were tested at doubling down dilutions ranging from 1 mM to 0.1 μM in a final volume of 200 μl of CTCM, containing ConA (Sigma, Poole, UK) at 1 μg/ml and 100,000 spleen cells. Following incubation for 48 h at 37° C. in 5% CO2-air, 0.25 μCi [^3H]-thymidine (Amersham) in 10 μl volume made up in RPMI 1640 medium was added and the cells were incubated for a further 24 h. Cells were harvested onto fibreglass filters with a Packard filtermate harvester. After the addition of 25 μl of MicroScint-O (Packard) to each well the filters were counted with the Packard TopCount scintillation counter.
(§2) Mitogen (Concanavalin A) induced murine splenocyte proliferation was indicated by the incorporation of tritated thymidine into the DNA in the mouse spleen cells as shown by counts per minute using the scintillation counter. The inhibitory effect of an HSL compound being tested on cell proliferation was indicated by a reduction in counts per minute.
as §1, with “70 μm pore size” for “70-μm-pore-size”, “5 ml” for “5-ml”, “The title compound was” for “HSL compounds were”, “dilutions” for “dilutions ranging from 1 mM to 0.1 μM in a final volume of 200 μl of CTCM,”, “g/ml” for “μg/ml”, “COrair,” for “CO2-air,”
as §2, with “the title” for “an HSL”

CCCCCCCCCCCC(=O)CC(=O)N[C@H]1CCOC1=O [Example 11, N-(3-Oxotetradecanoyl)-L-homoserine lactone]
inhibition of ConA induced proliferation of human PBMC (cpm), in words (human PBMC; ConA 1 μg/ml): inhibited proliferation of human PBMC
IC50 (human PBMC; human PBMC source B): 32 µM
IC50 (human PBMC; human PBMC source C): 12 µM
IC50 (human PBMC; human PBMC source D): 30 µM
IC50 (TNF-alpha; Experiment III, read-out: IC50 in inhibition of LPS induced production of TNF-α by human PBMC): 35 µM
inhibition of LPS induced TNF-α production by human PBMC, in words (TNF-alpha; LPS-stimulated human PBMC): inhibited the secretion
IC50 (murine splenocytes): 6 µM
